Here are results for 11 compounds from PMC8305717, “4-Phenethyl-1-Propargylpiperidine-Derived Dual Inhibitors of Butyrylcholinesterase and Monoamine Oxidase B” (Molecules, 2021).

One series relates to MAO-B. Particulars: binds covalently to N5 of FAD, crystal complex; cited from earlier work.
Another series has as its target T1, hAChE (Homo sapiens, UniProt P22303).
T1 construct: gift from Xavier Brazzolotto, Florian Nachon and José Dias (IRBA, Brétigny-sur-Orge, France)
Description: Ellman method cholinesterase assay, hAChE. The format is biochemical. To be noted: residual activity at 100 µM compound; 5-min pre-incubation; RA above 50% considered inactive; read-out: RA ± SD (%) at 100 µM, hAChE. The protocol: (§1) Inhibitory potencies against human (h)AChE and hBChE were determined using the Ellman method and inhibitory potencies against hMAO-A and hMAO-B were determined with horseradish peroxidase (HRP)-Amplex Red coupled assay.
(§2) The inhibitory potencies of the compounds against the ChEs were determined using the Ellman method. 5,5′-Dithiobis (2-nitrobenzoic acid) (Ellman’s reagent; DTNB, St. Louis, MO, USA), butyrylthiocholine iodide, and acetylthiocholine iodides were from Sigma-Aldrich. Recombinant hAChE and hBChE at the stock concentration of 16.5 mg/mL and 14.5 mg/mL, respectively, were kindly donated by Xavier Brazzolotto, Florian Nachon, and José Dias (IRBA, Brétigny-sur-Orge, France). The enzyme solutions were prepared by dilution of the concentrated stocks in 0.1 M phosphate-buffered solution (pH 8.0). The reactions were carried out in a final volume of 300 µL of 0.1 M phosphate-buffered solution, pH 8.0, containing 370 µM DTNB, 500 μM butyrylthiocholine/acetylthiocholine, and approximately 1 nM or 50 pM hBChE or hAChE, respectively. The reactions were started by the addition of the substrate after 5-min pre-incubation at room temperature. For time-dependency measurements of hBChE inhibition, the pre-incubation time was varied (i.e., 1 min, 5 min, 15 min, 30 min). The final content of the organic solvent (DMSO) was always 1%. The formation of the yellow 5-thio-2-nitrobenzoate anion as a result of the reaction of DTNB with the thiocholines was monitored for 1 min as the change in absorbance at 412 nm, using a 96-well microplate reader (SynergyTM H4; BioTek Instruments, Inc., USA). The initial velocities in the presence (vi) and the absence (vo) of the test compounds were calculated. The inhibitory potencies were expressed as the residual activities, according to RA = (vi − b)/(vo − b), where b is the blank value using phosphate buffer without ChEs. […] The IC50 values were obtained by plotting the residual ChEs activities against the applied inhibitor concentrations, with the experimental data fitted to a four-parameter logistic function (GraphPad Prism 9.0; GraphPad Software Inc., San Diego, CA, USA).

Another series concerns the target T2, hMAO-A (Homo sapiens, UniProt P21397).
T2 construct: purchased Sigma Aldrich; host or cells: BTI-TN-5B1-4 insect cells
T2 sequence (P21397 1-527): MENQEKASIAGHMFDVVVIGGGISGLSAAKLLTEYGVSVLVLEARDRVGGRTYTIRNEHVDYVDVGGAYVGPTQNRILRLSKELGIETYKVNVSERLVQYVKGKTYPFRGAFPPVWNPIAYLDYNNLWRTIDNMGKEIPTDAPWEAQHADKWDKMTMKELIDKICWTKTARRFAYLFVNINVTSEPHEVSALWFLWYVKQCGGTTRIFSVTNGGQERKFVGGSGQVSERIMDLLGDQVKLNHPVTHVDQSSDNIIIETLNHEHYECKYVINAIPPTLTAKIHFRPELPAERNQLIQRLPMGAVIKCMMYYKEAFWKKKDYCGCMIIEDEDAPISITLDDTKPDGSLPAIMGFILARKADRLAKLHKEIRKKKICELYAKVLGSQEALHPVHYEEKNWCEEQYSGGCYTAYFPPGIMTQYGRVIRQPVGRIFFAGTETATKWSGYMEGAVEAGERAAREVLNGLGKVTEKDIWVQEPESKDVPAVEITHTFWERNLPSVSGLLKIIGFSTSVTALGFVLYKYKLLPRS
Description: HRP-Amplex Red coupled fluorimetric assay, hMAO-A. The format is biochemical. Particulars: 15 min incubation at 37 °C; for remaining activity at 100 µM: 0.25 h, residual activity at 100 µM compound, RA above 50% considered inactive, read-out: RA ± SD (%) at 100 µM, hMAO-A; for IC50: 3 independent experiments, read-out: IC50 ± SEM, hMAO-A. The protocol: as §1
(§3) The effects of the test compounds on hMAO were investigated using a fluorimetric assay. Recombinant hMAO, expressed in BTI-TN-5B1-4 insect cells, p-tyramine hydrochloride, and horse-radish peroxidase type II were purchased from Sigma Aldrich, whereas Amplex Red was synthesized as reported previously.
(§4) In brief, 100 µL 50 mM sodium phosphate buffer (pH 7.4, 0.05 vol.% Triton X-114) containing the compounds or the reference inhibitors and hMAO were incubated for 15 min at 37 °C. The reaction was started by adding Amplex Red (final concentration, 250 µM), horseradish peroxidase (final activity, 2 U/mL), and p-tyramine (final concentration, 1 mM). The fluorescence increase (λex = 530 nm, λem = 590 nm) at 37 °C was monitored for 20 min. DMSO was used for control experiments. To determine the blank value (b), phosphate-buffered solution replaced the enzyme. Each measurement was performed in duplicate. The inhibitory potencies were expressed as the residual activities (RA) and IC50 values as described in Section 3.2.1. For the reversibility assay, the previously described protocol was followed.

Series [1] addresses T3, hBChE (Homo sapiens, UniProt P06276).
T3 construct: gift from Xavier Brazzolotto, Florian Nachon and José Dias (IRBA, Brétigny-sur-Orge, France)
Briefly: Ellman method cholinesterase assay, hBChE. Particulars: 5-min pre-incubation; for RA ± SD (%) at 100 µM, hBChE: residual activity at 100 µM compound, RA above 50% considered inactive; for IC50: 3 independent experiments, read-out: IC50 ± SEM, hBChE. It counts as biochemical. The protocol: as §1, §2

The target of series [2] is T4, hMAO-B (Homo sapiens, UniProt P27338).
T4 construct: purchased Sigma Aldrich; host or cells: BTI-TN-5B1-4 insect cells
T4 sequence (P27338 1-520): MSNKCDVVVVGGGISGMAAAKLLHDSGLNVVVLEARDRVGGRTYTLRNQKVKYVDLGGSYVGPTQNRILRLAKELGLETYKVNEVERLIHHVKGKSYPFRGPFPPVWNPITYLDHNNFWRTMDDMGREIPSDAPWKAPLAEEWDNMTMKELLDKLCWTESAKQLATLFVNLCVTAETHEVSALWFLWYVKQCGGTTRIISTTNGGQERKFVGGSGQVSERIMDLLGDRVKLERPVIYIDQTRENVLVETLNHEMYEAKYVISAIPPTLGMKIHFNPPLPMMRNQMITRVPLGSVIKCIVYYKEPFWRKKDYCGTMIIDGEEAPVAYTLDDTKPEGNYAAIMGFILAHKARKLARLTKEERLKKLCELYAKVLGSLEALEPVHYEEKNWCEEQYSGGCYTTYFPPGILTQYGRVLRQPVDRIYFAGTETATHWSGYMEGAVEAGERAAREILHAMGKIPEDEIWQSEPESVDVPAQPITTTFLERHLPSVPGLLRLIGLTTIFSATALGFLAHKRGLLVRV
Briefly: HRP-Amplex Red coupled fluorimetric assay, hMAO-B. Particulars: 15 min incubation at 37 °C; 3 independent experiments; read-out: IC50 ± SEM, hMAO-B. It counts as biochemical. The protocol:
as §1, §3, §4

The target of series [3] is T4, hMAO-B. Description: hMAO-B 100-fold dilution reversibility assay and IC50 shift at various pre-incubation times. It counts as biochemical. To be noted: for Reversibility of hMAO-B inhibition: 100-fold dilution assay; for Time-dependence of hMAO-B inhibition (IC50 shift): various pre-incubation times. The protocol: as §4
The reversibility was analyzed by one-way ANOVA and post-hoc comparisons were made using two-tailed Student’s t-test. p < 0.05—statistically significant. All data are means ± SEM (n = 2).
Figure 5 (A) A 100-fold dilution assay for hMAO-B inhibitors 12–14. L-Deprenyl was used as an irreversible inhibitor control; safinamide and isatin were used as reversible inhibitor controls. Data are mean values ± SEM (n = 2; each in quadruplicate): ∗, p < 0.05 (one-way ANOVA, with Bonferroni correction, followed by t-tests).

In series [4] the target is T3, hBChE. Description: hBChE time-dependency measurements (IC50 shift, varied pre-incubation time). It counts as biochemical. Particulars: pre-incubation 1, 5, 15, 30 min. The protocol: as §2
Figure 7 The IC50 shift curves for compounds 13–15 during hBChE inhibition.

Where “and” joins values, the source holds several entries; their conditions need not be identical. Equal values may be shown once. Entries after “also recorded” stand apart in the source; their conditions may differ.

T1 sequence (P22303 32-614): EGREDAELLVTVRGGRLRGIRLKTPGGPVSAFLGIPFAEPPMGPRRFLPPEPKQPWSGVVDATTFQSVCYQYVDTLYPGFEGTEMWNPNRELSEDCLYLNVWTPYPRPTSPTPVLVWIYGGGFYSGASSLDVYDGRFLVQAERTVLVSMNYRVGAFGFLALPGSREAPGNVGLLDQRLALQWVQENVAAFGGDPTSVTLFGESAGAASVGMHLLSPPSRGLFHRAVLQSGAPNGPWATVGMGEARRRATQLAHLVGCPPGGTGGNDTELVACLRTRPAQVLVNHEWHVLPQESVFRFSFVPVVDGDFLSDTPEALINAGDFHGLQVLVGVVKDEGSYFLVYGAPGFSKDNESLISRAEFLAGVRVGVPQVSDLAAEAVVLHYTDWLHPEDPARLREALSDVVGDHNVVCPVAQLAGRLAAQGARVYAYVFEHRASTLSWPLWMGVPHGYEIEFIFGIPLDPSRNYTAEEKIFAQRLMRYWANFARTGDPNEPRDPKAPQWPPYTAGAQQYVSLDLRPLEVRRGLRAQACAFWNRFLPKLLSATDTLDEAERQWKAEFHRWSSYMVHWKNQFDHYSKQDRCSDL
T3 sequence (P06276 29-602): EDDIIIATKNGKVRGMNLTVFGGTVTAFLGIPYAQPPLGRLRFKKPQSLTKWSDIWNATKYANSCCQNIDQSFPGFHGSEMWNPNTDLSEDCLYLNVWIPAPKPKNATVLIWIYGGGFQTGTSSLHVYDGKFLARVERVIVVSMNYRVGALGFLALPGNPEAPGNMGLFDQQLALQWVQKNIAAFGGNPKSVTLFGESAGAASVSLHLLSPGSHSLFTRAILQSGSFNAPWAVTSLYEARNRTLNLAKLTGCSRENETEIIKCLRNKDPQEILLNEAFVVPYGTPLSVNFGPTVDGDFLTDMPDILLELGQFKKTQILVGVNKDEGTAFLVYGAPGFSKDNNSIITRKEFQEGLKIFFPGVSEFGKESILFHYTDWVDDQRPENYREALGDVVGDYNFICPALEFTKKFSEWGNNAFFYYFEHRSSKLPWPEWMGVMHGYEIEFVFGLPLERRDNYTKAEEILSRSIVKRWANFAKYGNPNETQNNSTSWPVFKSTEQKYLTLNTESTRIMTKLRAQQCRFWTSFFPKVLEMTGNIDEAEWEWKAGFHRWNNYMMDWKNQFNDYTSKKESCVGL

For the compound `C#CCN1CCC(/C=C/c2ccc(F)cc2)CC1` [A], in the series on MAO-B, the “MAO-B inhibition, type” value was “potent and irreversible MAO-B inhibitor”.
As to `C#CCN1CCC(/C=C/c2ccc(OC)cc2)CC1` [Compound 6, (E)-4-(4-methoxystyryl)-1-(prop-2-yn-1-yl)piperidine], the remaining activity at 100 µM at hAChE was found to be 61.9 ± 1.2%; at hMAO-A, 52.6 ± 0.7%. Moreover, on hBChE [1], the “RA ± SD (%) at 100 µM, hBChE” value worked out at 68.8 ± 0.6%.
Take `C#CCN1CCC(CCc2ccc(OC)cc2)CC1` [Compound 7, 4-(4-methoxyphenethyl)-1-(prop-2-yn-1-yl)piperidine]: the remaining activity at 100 µM on hAChE was 73.1 ± 4.3%; on hMAO-A, 62.2 ± 1.8%. Besides, the “RA ± SD (%) at 100 µM, hBChE” value on hBChE [1] is listed as 51.2 ± 1.6%.
In the case of `C#CCN1CCC(CCc2cccc(OC)c2)CC1` [Compound 8, 4-(3-methoxyphenethyl)-1-(prop-2-yn-1-yl)piperidine], the results for the remaining activity at 100 µM at hAChE and at hMAO-A were 73.2 ± 8.9% and 59.8 ± 3.7%, respectively. Also, the IC50 on hMAO-B [2] came out at 0.238 ± 0.0269 µM. Besides, on hBChE [1], the “RA ± SD (%) at 100 µM, hBChE” value came out at 55.5 ± 0.2%.
Turning to `C#CCN1CCC(/C=C/c2ccc(O)cc2)CC1` [Compound 9, (E)-4-(2-(1-(prop-2-yn-1-yl)piperidin-4-yl)vinyl)phenol], the remaining activity at 100 µM at hAChE stood at 65.9 ± 3.1%. Moreover, the IC50 is 15.5 ± 0.9 µM on hMAO-A and 12.9 ± 1.1 µM on hMAO-B [2]. In addition, the “RA ± SD (%) at 100 µM, hBChE” value at hBChE [1] turned out to be 64.9 ± 2.0%.
Turning to `C#CCN1CCC(CCc2ccc(O)cc2)CC1` [Compound 10, 4-(2-(1-(prop-2-yn-1-yl)piperidin-4-yl)ethyl)phenol], the remaining activity at 100 µM on hAChE was 61.4 ± 2.7%. Besides, the IC50 on hMAO-A was found to be 34 ± 5.8 µM. For the same compound, the “RA ± SD (%) at 100 µM, hBChE” value at hBChE [1] was determined as 53.8 ± 0.6%.
For `C#CCN1CCC(CCc2cccc(O)c2)CC1` [Compound 11, 3-(2-(1-(prop-2-yn-1-yl)piperidin-4-yl)ethyl)phenol], the remaining activity at 100 µM is 54.7 ± 2.9% on hAChE and 63.3 ± 0.4% at hMAO-A. For the same compound, the IC50 at hMAO-B [2] was 52.5 ± 14.8 µM. Moreover, the “RA ± SD (%) at 100 µM, hBChE” value on hBChE [1] is 72.9 ± 2.8%.
Take `C#CCN1CCC(CCc2ccc(OC(=O)Nc3ccccc3)cc2)CC1` [Compound 12, 4-(2-(1-(prop-2-yn-1-yl)piperidin-4-yl)ethyl)phenyl phenylcarbamate]: the remaining activity at 100 µM on hAChE is 52.2 ± 1.7%. Moreover, the remaining activity at 100 µM on hMAO-A is 56.7 ± 0.9%. For the same compound, the IC50 on hMAO-B [2] came out at 9.7 ± 1.2 µM. At hMAO-B [3], the “Reversibility of hMAO-B inhibition” value is recorded as “reversible” and the “Time-dependence of hMAO-B inhibition (IC50 shift)” value is given as “absence of IC50 shift; also recorded: did not exhibit time-dependent inhibition”. Further, the “RA ± SD (%) at 100 µM, hBChE” value at hBChE [1] worked out at 60.2 ± 1.8%.
Consider `C#CCN1CCC(CCc2cccc(OC(=O)Nc3ccccc3)c2)CC1` [Compound 13, 3-(2-(1-(prop-2-yn-1-yl)piperidin-4-yl)ethyl)phenyl phenylcarbamate], for which the remaining activity at 100 µM is 51.9 ± 1.4% on hAChE and 54 ± 0.4% on hMAO-A. In addition, the IC50 on hMAO-B [2] was 23.6 ± 3 µM; on hBChE [1], 4.4 ± 0.8 µM. For the same compound, the “Reversibility of hMAO-B inhibition” value at hMAO-B [3] is “reversible”. Also, at hMAO-B [3], the “Time-dependence of hMAO-B inhibition (IC50 shift)” value is reported as “absence of IC50 shift; also recorded: did not exhibit time-dependent inhibition”. The “Time-dependence of hBChE inhibition (IC50 shift)” value at hBChE [4] was “IC50 shift was absent”.
Regarding `C#CCN1CCC(CCc2ccc(OC(=O)N(C)CC)cc2)CC1` [Compound 14, 4-(2-(1-(prop-2-yn-1-yl)piperidin-4-yl)ethyl)phenyl ethyl(methyl)carbamate], the results for the remaining activity at 100 µM on hAChE and at hMAO-A were 66.1 ± 4.8% and 51.2 ± 1.5%, respectively. Besides, the IC50 at hMAO-B [2] came to 0.181 ± 0.0287 µM; on hBChE [1], 75.5 ± 8.4 µM. Also, the “Reversibility of hMAO-B inhibition” value on hMAO-B [3] is on record as “irreversible”. The “Time-dependence of hMAO-B inhibition (IC50 shift)” value at hMAO-B [3] is on record as “time-dependent hMAO-B inhibition”. The “Time-dependence of hBChE inhibition (IC50 shift)” value at hBChE [4] was “IC50 shift was absent”.
On to `C#CCN1CCC(CCc2cccc(OC(=O)N(C)CC)c2)CC1` [Compound 15, 3-(2-(1-(prop-2-yn-1-yl)piperidin-4-yl)ethyl)phenyl ethyl(methyl)carbamate], for which the remaining activity at 100 µM on hAChE turned out to be 60.2 ± 1.8%; on hMAO-A it was 69.4 ± 9.4%. Further, the IC50 was 4.3 µM and 8.5 µM at hMAO-B [2]; 8.5 µM and 4.3 µM on hBChE [1]. Also, the “Time-dependence of hBChE inhibition (IC50 shift)” value at hBChE [4] is on record as “time-dependent inhibition”.

By IC50 is commonly meant the midpoint of a concentration-inhibition curve.
